Measured values from patent US11471537B2, “Oligomer extended insulin-Fc conjugates” (Novo Nordisk A/S, priority 2017, dated 2022).

Tests used:
Sprague-Dawley rats = assay: PD studies: blood glucose after subcutaneous dosing; type: in vivo; details: sc
Description: The pharmacodynamic effect of the Insulin Fc conjugates of the examples were investigated in normal male Sprague-Dawley rats weighing approx. 350 g at study start.
Animals had free access to food and water during the experiment period. They were dosed subcutaneously in the neck region with a dose of 30 nmol/kg (unless otherwise stated in the figures below). Blood samples for blood glucose and plasma insulin analysis were collected from the tongue veins up to 10 days post dosing. Blood glucose was measured using Biosen S Line (EKF).

[1] = PK studies: intravenous and subcutaneous administration to SD rats, insulin-Fc concentrations by immuno-assay; type: in vivo; details: for PK rat sc [T½ (h)] Mean Value: subcutaneous
Description: Insulin-Fc conjugates were tested in vivo by intravenous and subcutaneous administration to SD rats. Blood samples were collected and the insulin-Fc concentrations were measured by immuno-assay.

insulin receptor A = insulin receptor A (Homo sapiens, UniProt P06213); assay: Insulin receptor affinity; type: binding; details: relative to affinity of human insulin for insulin receptor A (100%)
Sequence of insulin receptor A (P06213 28-1370 isoform P06213-2 limits assumed): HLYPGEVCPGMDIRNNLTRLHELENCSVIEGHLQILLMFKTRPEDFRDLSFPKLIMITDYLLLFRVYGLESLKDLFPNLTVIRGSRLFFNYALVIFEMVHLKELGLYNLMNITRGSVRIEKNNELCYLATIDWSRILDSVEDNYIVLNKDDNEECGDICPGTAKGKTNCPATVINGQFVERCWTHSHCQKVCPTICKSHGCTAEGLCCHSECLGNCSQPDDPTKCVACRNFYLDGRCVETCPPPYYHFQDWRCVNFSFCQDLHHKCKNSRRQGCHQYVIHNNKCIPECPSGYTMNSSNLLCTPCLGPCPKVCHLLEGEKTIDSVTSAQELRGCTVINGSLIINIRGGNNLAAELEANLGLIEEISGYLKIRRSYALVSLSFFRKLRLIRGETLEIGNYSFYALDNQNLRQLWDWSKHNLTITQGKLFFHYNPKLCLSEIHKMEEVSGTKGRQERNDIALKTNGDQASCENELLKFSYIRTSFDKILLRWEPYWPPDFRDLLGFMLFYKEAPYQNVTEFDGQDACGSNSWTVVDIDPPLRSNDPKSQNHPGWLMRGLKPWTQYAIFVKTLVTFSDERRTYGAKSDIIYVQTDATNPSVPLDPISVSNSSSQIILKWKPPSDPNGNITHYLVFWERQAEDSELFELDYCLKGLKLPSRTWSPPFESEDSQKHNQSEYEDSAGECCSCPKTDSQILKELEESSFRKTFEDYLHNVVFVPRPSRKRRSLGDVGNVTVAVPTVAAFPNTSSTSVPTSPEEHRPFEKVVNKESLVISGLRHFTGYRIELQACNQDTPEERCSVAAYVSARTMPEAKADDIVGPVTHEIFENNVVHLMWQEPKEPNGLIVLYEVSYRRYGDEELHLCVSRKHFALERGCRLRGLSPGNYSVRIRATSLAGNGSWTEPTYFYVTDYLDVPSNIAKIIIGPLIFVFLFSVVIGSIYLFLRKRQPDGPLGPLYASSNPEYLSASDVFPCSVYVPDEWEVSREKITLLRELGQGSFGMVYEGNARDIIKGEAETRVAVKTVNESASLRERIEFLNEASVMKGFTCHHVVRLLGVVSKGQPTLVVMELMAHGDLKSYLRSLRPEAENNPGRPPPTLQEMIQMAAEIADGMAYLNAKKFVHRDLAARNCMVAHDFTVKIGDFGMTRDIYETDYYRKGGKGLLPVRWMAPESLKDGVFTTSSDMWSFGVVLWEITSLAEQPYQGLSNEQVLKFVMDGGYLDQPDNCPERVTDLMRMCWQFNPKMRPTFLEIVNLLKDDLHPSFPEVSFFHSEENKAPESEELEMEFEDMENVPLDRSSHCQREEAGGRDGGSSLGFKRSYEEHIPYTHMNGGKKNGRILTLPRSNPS
Sequence of insulin receptor A (P06213 763-1382 partner limits assumed): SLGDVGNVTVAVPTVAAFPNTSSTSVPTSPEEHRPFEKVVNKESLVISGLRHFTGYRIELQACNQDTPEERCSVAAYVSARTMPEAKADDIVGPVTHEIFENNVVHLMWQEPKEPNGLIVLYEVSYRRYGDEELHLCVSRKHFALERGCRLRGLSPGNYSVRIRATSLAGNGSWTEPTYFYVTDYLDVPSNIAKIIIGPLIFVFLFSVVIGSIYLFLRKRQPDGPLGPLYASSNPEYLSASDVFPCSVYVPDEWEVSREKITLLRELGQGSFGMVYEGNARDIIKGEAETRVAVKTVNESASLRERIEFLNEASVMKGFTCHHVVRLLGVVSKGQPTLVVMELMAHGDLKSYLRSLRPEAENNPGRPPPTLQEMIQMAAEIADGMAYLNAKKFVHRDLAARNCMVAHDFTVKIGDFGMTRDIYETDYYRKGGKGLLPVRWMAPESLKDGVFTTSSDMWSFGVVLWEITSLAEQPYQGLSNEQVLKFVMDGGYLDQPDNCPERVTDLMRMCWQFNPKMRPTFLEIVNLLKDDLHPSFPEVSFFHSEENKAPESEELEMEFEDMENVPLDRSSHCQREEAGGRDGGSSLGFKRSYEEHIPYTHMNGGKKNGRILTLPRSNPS

isolated rat adipocytes = assay: Insulin-stimulated lipogenesis; type: cell-based; details: 1% HSA; relative to the activity of human insulin (100%)
Description: Insulin-stimulated lipogenesis was measured in isolated rat adipocytes in presence of 1% HSA as described in Moody A J, Stan M A, Stan M, Gliemann J. A Simple Free Fat Cell Bioassay for Insulin. Hormone And Metabolic Research. 1974; 6(1):12-6, see results in Table 6.

[2] = dose 30 nmol/kg, time 0.041667 days
[3] = dose 30 nmol/kg, time 0.125 days
[4] = dose 30 nmol/kg, time 0.291667 days
[5] = dose 30 nmol/kg, time 0.208333 days

Substance	Average blood glucose (Sprague-Dawley rats; dose 30 nmol/kg, time 0 days)	Average blood glucose (Sprague-Dawley rats; [2])	Average blood glucose (Sprague-Dawley rats; [3])	Average blood glucose (Sprague-Dawley rats; [4])	Average blood glucose (Sprague-Dawley rats; dose 30 nmol/kg, time 1 day)	Average blood glucose (Sprague-Dawley rats; dose 30 nmol/kg, time 2 days)	Average blood glucose (Sprague-Dawley rats; dose 30 nmol/kg, time 3 days)	Average blood glucose (Sprague-Dawley rats; dose 30 nmol/kg, time 4 days)	Average blood glucose (Sprague-Dawley rats; dose 30 nmol/kg, time 5 days)	Average blood glucose (Sprague-Dawley rats; dose 30 nmol/kg, time 6 days)	Average blood glucose (Sprague-Dawley rats; dose 30 nmol/kg, time 7 days)	Average blood glucose (Sprague-Dawley rats; dose 30 nmol/kg, time 8 days)	PK rat iv [T½ (h)] Mean Value [1]	PK rat sc [T½ (h)] Mean Value [1]	Insulin receptor affinity [IC50 relative to HI (%)] Mean Value (insulin receptor A)	Lipogenesis in rat adipocytes [Potency (%)] Mean Value (isolated rat adipocytes)	further results
(A1(N(alpha)acetyl), A14E, A21G, A22(GQAP)19, A98K^, A99P, B1(N(alpha)acetyl), B25H, B29R, desB30 human insulin)/(227A, 234A, 235K, 297E, 315Q, 384Q, des447 hIgG4-Fc(228-447))4-[bis[2-[(2-acetyl)amino]ethyl]amino]-4-oxo-butanoyl Conjugate [Example 5.27]	5.504 mM	6.308 mM	5.72 mM	5.164 mM	3.036 mM	3.852 mM	4.384 mM	5.272 mM	5.236 mM	5.564 mM	5.824 mM	5.924 mM	40.7 h	50.4 h	1.07%		Average blood glucose (Sprague-Dawley rats; dose 30 nmol/kg, time 9 days): 5.68 mM; Average blood glucose (Sprague-Dawley rats; dose 30 nmol/kg, time 10 days): 6.12 mM
A14E, A21G, A22(GQAPGQAPGQEP)6-GQAP, A98K^, A99P, B3Q, B25H, B29R, desB30 human insulin/(227A, 234A, 235K, 297E, 315Q, 3840, des447 hIgG4-Fc(228-447))4-[bis[2-[(2-acetyl)amino]ethyl]amino]-4-oxo-butanoyl Conjugate [Example 5.13]	6.384 mM	5.976 mM	4.892 mM	4.184 mM	2.428 mM	2.452 mM	3.308 mM	5.676 mM		5.908 mM	5.812 mM	5.492 mM			5.55%	3.07%	
A14E, A21G, A22(GQAPGQEP)6, A70K^, A71P, B25H, B29R, desB30 human insulin/(227A, 234A, 235K hIgG4-Fc(228-447))4-[bis[2-[(2-acetyl)amino]ethyl]amino]-4-oxo-butanoyl Conjugate [Example 5.9]	5.812 mM	5.448 mM	5.438 mM	4.426 mM	3.044 mM	2.614 mM	2.594 mM	3.734 mM	5.932 mM	6.244 mM	6.312 mM	6.186 mM			2.96%	3.02%	Average blood glucose (Sprague-Dawley rats; [5]): 4.902 mM
A14E, A21G, A22(GQEP)6, A46K^, A47P, B25H, B29R, desB30 human insulin/(227A, 234A, 235K hIgG4-Fc(228-447))4-[bis[2-[(2-acetyl)amino]ethyl]amino]-4-oxo-butanoyl Conjugate [Example 5.7]	5.918 mM	5.682 mM	4.502 mM	3.428 mM	2.758 mM	2.15 mM	2.3 mM	2.81 mM	4.404 mM	6.702 mM	6.518 mM	6.33 mM			2.43%	1.88%	Average blood glucose (Sprague-Dawley rats; [5]): 3.974 mM
A14E, A21G, A22(GQEP)12, A70K^, A71P, B25H, B29R, desB30 human insulin/(227A, 234A, 235K hIgG4-Fc(228-447))4-[bis[2-[(2-acetyl)amino]ethyl]amino]-4-oxo-butanoyl Conjugate [Example 5.8]	5.538 mM	5.44 mM	4.488 mM	3.238 mM	2.978 mM	1.844 mM	2.545 mM	3.325 mM	5.39 mM	6.8425 mM	6.4875 mM	6.1875 mM			10.58%	5.31%	Average blood glucose (Sprague-Dawley rats; [5]): 3.55 mM
A14E, A21G, A22(GQEP)19, A98K^, A99P, B3Q, B25H, B29R, desB30 human insulin/(227A, 234A, 235K, 297E, 315Q, 384Q, des447 hIgG4-Fc(228-447))4-[bis[2-[(2-acetyl)amino]ethyl]amino]-4-oxo-butanoyl Conjugate [Example 5.2]	6.608 mM	6.196 mM	5.328 mM	4.48 mM	2.7 mM	2.66 mM	3.08 mM	5.156 mM		6.232 mM	6.092 mM	5.972 mM			6.10%	3.57%	
A14E, A21Q, A22(G)18, A40K^, B25H, B29R, desB30 human insulin/(227A, 234A, 235K hIgG4-Fc(228-447))4-[bis[2-[(2-acetyl)amino]ethyl]amino]-4-oxo-butanoyl Conjugate [Example 5.21]															2.10%	0.95%	Average blood glucose (Sprague-Dawley rats; dose 300 nmol/kg, time 0 days): 5.254 mM; Average blood glucose (Sprague-Dawley rats; dose 300 nmol/kg, time 0.006944 days): 5.972 mM; Average blood glucose (Sprague-Dawley rats; dose 300 nmol/kg, time 0.041667 days): 4.224 mM; Average blood glucose (Sprague-Dawley rats; dose 300 nmol/kg, time 0.125 days): 3.238 mM; Average blood glucose (Sprague-Dawley rats; dose 300 nmol/kg, time 0.208333 days): 2.842 mM; Average blood glucose (Sprague-Dawley rats; dose 300 nmol/kg, time 0.291667 days): 3.212 mM; Average blood glucose (Sprague-Dawley rats; dose 300 nmol/kg, time 0.3336 days): 3.494 mM; Average blood glucose (Sprague-Dawley rats; dose 300 nmol/kg, time 1 day): 2.58 mM; Average blood glucose (Sprague-Dawley rats; dose 300 nmol/kg, time 2 days): 2.118 mM; Average blood glucose (Sprague-Dawley rats; dose 300 nmol/kg, time 3 days): 2.074 mM; Average blood glucose (Sprague-Dawley rats; dose 300 nmol/kg, time 4 days): 2.37 mM; Average blood glucose (Sprague-Dawley rats; dose 300 nmol/kg, time 5 days): 2.478 mM; Average blood glucose (Sprague-Dawley rats; dose 300 nmol/kg, time 6 days): 4.534 mM; Average blood glucose (Sprague-Dawley rats; dose 300 nmol/kg, time 7 days): 5.588 mM; Average blood glucose (Sprague-Dawley rats; dose 300 nmol/kg, time 8 days): 6.552 mM; Average blood glucose (Sprague-Dawley rats; dose 300 nmol/kg, time 9 days): 5.644 mM; Average blood glucose (Sprague-Dawley rats; dose 300 nmol/kg, time 10 days): 5.788 mM
A14E, B(−78K^), B(−77P), B(−1)(GQAP)19, B25H, B29R, desB30 human insulin/(227A, 234A, 235K, 297E, 315Q, 384Q, des447 hIgG4-Fc(228-447))4-[bis[2-[(2-acetyl)amino]ethyl]amino]-4-oxo-butanoyl Conjugate [Example 5.18]													24.9 h	28.0 h	2.78%	0.87%	
A14E, B(−78K^), B(−77P), B(−1)(GQAPGQAPGQEP)6-GQAP, B3Q, B25H, B29R, desB30 human insulin/(227A, 234A, 235K hIgG4-Fc(228-447))4-[bis[2-[(2-acetyl)amino]ethyl]amino]-4-oxo-butanoyl Conjugate [Example 5.3]													35.6 h	33.1 h	2.57%	0.55%	
A14E, B(−78K^), B(−77P), B(−1)(GQEP)19, B25H, B29R, desB30 human insulin/(227A, 234A, 235K hIgG4-Fc(228-447))4-[bis[2-[(2-acetyl)amino]ethyl]amino]-4-oxo-butanoyl Conjugate [Example 5.4]													26.4 h	32.2 h	2.14%	0.36%	
A14E, B(−78K^), B(−77P), B(−1)(GQEP)19, B25H, B29R, desB30 human insulin/(227A, 234A, 235K, 297E, 315Q, 384Q, des447 hIgG4-Fc(228-447))4-[bis[2-[(2-acetyl)amino]ethyl]amino]-4-oxo-butanoyl Conjugate [Example 5.11]													30.7 h	33.1 h	1.72%	0.39%	
